# Reference: patent publication US9549958B2, “Extracts of Cynanchum sp. and active ingredients contained therein in use of arthritis treatment” (INDUSTRIAL TECHNOLOGY RESEARCH INSTITUTE, priority 2011, dated 2017)
# How the values were obtained:
# [1] = system: collagen-induced arthritis model; experiment: Collagen-induced arthritis model, morbidity and onset; type: in vivo, rat
# Procedure: (§1) 50 μg of a fetus bovine type II collagen (CII, Chondrex) was emulsified in a complete Freund's adjuvant (CFA, Sigma). The ankle volume was measured as the basis of a hindpaw volume. On the eighth day after the primary immune, each rat was injected with 100 μg of the collagen emulsified in IFA (Sigma) to induce arthritis. The carrier control group was i.p. injected with 2 ml/kg of 0.5% CMC rats every two days until day 21. The experimental group was […] antofine isolated from Example 1 according to the following regimes: Group 1 was i.p. injected with 3 mg/kg of antofine every two days until Day 20 and then i.p. injected with 3 mg/kg of antofine per day on Day 21˜23; Group 2 was i.p. injected with 3 mg/kg of antofine every three days until Day 20 and then i.p. injected with 3 mg/kg of antofine per day on Day 21˜23; Group 3 was i.p. injected with 2 mg/kg of antofine every two days until Day 20 and then i.p. injected with 3 mg/kg of antofine per day on Day 21˜23; Group 4 was i.p. injected with 3 mg/kg of antofine per day for 5 days, and then stop administration on the next nine days, and i.p. injected with 3 mg/kg of antofine per day on Day 21˜23.; and All rats were scarified on Day 24.
# [2] = Weight changes in collagen-induced arthritis model; type: in vivo, rat; settings: various doses of antofine and regimes (Groups 1-4), i.p., rats
# Procedure: as §1
# [3] = system: TNF-α; experiment: TNF-α inhibition in LPS-stimulated activated U937 cells (ELISA); type: cell-based; settings: Homo sapiens, U-937, Example 3
# Procedure: A human myeloid leukemia cell line U937 (Rockville, Md.) was obtained from ATCC. The cell line was cultured in a RPMI 1640 medium with a 10% fetal calf serum (FCS) at 37° C., 5% CO2. The cell line maintained in exponential growth. For inducing differentiation, the cells with a starting concentration of 4×10^5 cell/ml were cultured in T150 containing 50 ng/ml PMA (Sigma) for 24 hours. Subsequently, the cells were moved to a fresh medium without PMA and cultured for 48 hours. The cells were collected with rubber policeman (Bellco Glass, Vineland, N.J.) gently scraping the medium bottle for the next step.
# The activated U937 cells were seeded into a 96-well plate to form a concentration of 1.6×10^5 cell/well. The ethanol extracts of Cynanchum hancockianum in different concentrations were respectively added 10 μl to the 96-well plate. The final volume of each well was 190 μl. The plate was cultured at 37° C., 5% CO2 for 30 min. Then each well was added 2 μg/ml of lipopolysaccharide (LPS) in PBS 10 μl and cultured at 37° C. for 4 hours. […] The amount of TNF-α was analyzed by an ELISA (TNF-α duoset, R&D, Minneapolis, Minn.). […]
# The activated U937 cells obtained from Example 2 were seeded into a 96-well plate to form a concentration of 1.6×10^5 cell/well. […] The amount of TNF-α was analyzed by an ELISA and cell viability was tested by MTT. […]
smiles,measurement,setting,value
"COc1ccc2c3c(c4cc(OC)c(OC)cc4c2c1)C[C@H]1CCCN1C3 [antofine, (−)-antofine]",Morbidities and onset of arthritis,"[1]; Group 1: 3 mg/kg i.p. every two days until Day 20, then 3 mg/kg per day on Day 21-23",decreased morbidities and delayed onsets
same,Morbidities and onset of arthritis,"[1]; Group 4: 3 mg/kg i.p. per day for 5 days, stop nine days, 3 mg/kg per day on Day 21-23",decreased morbidities and delayed onsets
same,Weight changes,[2],not greatly changed
same,IC50,[3],7 ng/mL
